US10633338B2, “Binding Function 3 (BF3) site compounds as therapeutics and methods for their use” (THE UNIVERSITY OF BRITISH COLUMBIA, priority 2014, dated 2020)
pIC50: −log10 of the molar value. Like-named read-outs stand apart in the source and are kept apart here.

Columns and labels:
androgen receptor (AR) = molecular target: T1, androgen receptor (AR) (Homo sapiens, UniProt P10275, T878A); assay: eGFP cellular AR transcription assay; assay type: cell-based
T1 construct: stably transfected eGFP-expressing LNCaP human prostate cancer cells (LN-ARR2PB-eGFP) containing an androgen responsive probasin-derived promoter; endogenous in cells; host or cells: LNCaP (LN-ARR2PB-eGFP)
T1 sequence (P10275 1-920 T878A): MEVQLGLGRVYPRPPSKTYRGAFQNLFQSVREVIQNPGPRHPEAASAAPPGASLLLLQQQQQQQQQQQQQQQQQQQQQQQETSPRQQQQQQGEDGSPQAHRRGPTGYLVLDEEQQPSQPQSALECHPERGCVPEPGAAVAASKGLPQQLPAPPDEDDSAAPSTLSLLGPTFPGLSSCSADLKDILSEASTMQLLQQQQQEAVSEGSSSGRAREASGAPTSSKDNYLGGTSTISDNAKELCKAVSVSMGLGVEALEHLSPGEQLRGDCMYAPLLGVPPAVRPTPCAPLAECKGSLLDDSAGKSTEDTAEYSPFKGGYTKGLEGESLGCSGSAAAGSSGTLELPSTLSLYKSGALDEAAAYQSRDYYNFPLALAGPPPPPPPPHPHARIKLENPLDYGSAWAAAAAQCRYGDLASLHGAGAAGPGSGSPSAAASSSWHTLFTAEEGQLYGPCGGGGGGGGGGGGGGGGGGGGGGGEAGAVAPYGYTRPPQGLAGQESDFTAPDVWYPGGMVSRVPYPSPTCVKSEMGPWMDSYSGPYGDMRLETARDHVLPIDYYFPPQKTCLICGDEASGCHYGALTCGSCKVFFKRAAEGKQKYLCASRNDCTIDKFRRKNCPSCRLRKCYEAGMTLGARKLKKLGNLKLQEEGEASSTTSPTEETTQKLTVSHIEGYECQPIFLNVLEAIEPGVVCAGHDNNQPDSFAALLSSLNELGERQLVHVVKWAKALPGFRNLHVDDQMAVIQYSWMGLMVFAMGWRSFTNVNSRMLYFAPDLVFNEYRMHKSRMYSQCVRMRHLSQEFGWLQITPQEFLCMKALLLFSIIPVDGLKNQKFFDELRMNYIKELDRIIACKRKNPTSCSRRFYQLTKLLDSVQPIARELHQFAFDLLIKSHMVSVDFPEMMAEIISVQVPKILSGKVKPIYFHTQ
Procedure, shortened: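 AR transcriptional activity is read as eGFP expression from a probasin-derived androgen-responsive promoter. Compound titrated 0-100 μM in the presence of 0.1 nM R1881; 35,000 cells/well.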

PSA = assay: Prostate Surface Antigen (PSA) assay, PSA excreted into the media; assay type: cell-based, human; conditions: same plates as eGFP assay
Protocol: The evaluation of PSA excreted into the media was performed in parallel to the eGFP assay using the same plates (see above description). After the cells were incubated for 3 days 150 μl of the media was taken from each well, and added to 150 μl of PBS.

[1] = LN-ARR2PBeGFP LNCaP cells, 0.1 nM R1881, 3 days incubation, read-out: eGFP IC50
[2] = Homo sapiens, 72 h, PSA excreted into media, 3 days incubation, read-out: PSA IC50
[3] = LN-ARR2PB-eGFP LNCaP cells, 0.1 nM R1881, 3 days, 0-100 μM compound, read-out: IC50 (eGFP)
[4] = Homo sapiens, 72 h, media after 3 days, read-out: IC50 (PSA)
[5] = LN-ARR2PBeGFP LNCaP cells, 0.1 nM R1881, 3 days incubation
[6] = PSA excreted into media, 3 days incubation
[7] = LN-ARR2PB-eGFP LNCaP cells, 0.1 nM R1881, 3 days, 0-100 μM compound

| Structure (SMILES) | pIC50 (androgen receptor (AR); [1]) | pIC50 (PSA; [2]) | further results |
| --- | --- | --- | --- |
| CC1(C)c2ccccc2NC1c1c[nH]c2cc(Cl)ccc12 (stereo not shown) [Compound 13521] | 6.40 | 6.59 | – |
| CC1(C)C(c2c[nH]c3c(O)cccc23)=Nc2ccccc21 [Compound 13541] | 6.30 | 6.03 | – |
| c1ccc2ncc(-c3n[nH]c4ccccc34)cc2c1 [13 684] | – | – | pIC50 (androgen receptor (AR); [3]): 5.85; pIC50 (PSA; [4]): 5.18 |
| Clc1ccccc1/N=N/c1c[nH]c2ccccc12 [Compound 13255] | 6.30 | 6.34 | – |
| Fc1cc(Cl)c2[nH]cc(-c3ccc4c(Cl)cccc4n3)c2c1 [Compound 13669] | – | – | eGFP IC50 (androgen receptor (AR); [5]): Inactive; PSA IC50 (PSA; [6]): Inactive |
| Cc1cccc2c(-c3ccc4cccnc4c3)c[nH]c12 [Compound 13744] | 6.12 | 6.12 | – |
| Cc1cccc2c(-c3ccc4scnc4c3)c[nH]c12 [Compound 13758] | – | – | eGFP IC50 (androgen receptor (AR); [5]): Inactive; PSA IC50 (PSA; [6]): Inactive |
| N#Cc1cc(F)cc2c(-c3ccc4ccc(F)cc4n3)c[nH]c12 [Compound 13730] | 6.83 | 6.70 | – |
| Cc1cc(C)c2[nH]cc(-c3ccc4cc(F)ccc4n3)c2c1 [Compound 13599] | – | – | eGFP IC50 (androgen receptor (AR); [5]): Inactive; PSA IC50 (PSA; [6]): Inactive |
| c1ccc2nc(-c3n[nH]c4ccccc34)ccc2c1 [Compound 13663] | – | – | eGFP IC50 (androgen receptor (AR); [5]): Inactive; PSA IC50 (PSA; [6]): Inactive |
| c1ccc2nc(-c3c[nH]c4ccccc34)ncc2c1 [Compound 13587] | 6.12 | 6.28 | – |
| Fc1ccc(Cl)c2[nH]ccc12 [Compound 13726] | – | – | eGFP IC50 (androgen receptor (AR); [5]): Inactive; PSA IC50 (PSA; [6]): Inactive |
| Cc1cccc2c(C3Nc4ccccc4C34CCCCC4)c[nH]c12 (stereo not shown) [Compound 13549] | 5.77 | 5.59 | – |
| NC(=O)c1ccccc1/N=C/c1c[nH]c2ccccc12 [Compound 13427] | 6.40 | 6.51 | – |
| FC(F)(F)c1ccccc1-c1c[nH]c2ccccc12 [13 745] | – | – | pIC50 (androgen receptor (AR); [3]): 6.00; pIC50 (PSA; [4]): 6.02 |
| FC(F)(F)c1ccc(-c2c[nH]c3ccccc23)nc1 [13 741] | – | – | pIC50 (androgen receptor (AR); [3]): 6.54; pIC50 (PSA; [4]): 6.54 |
| Cc1[nH]c2ccccc2c1/N=N/c1ccccc1C(F)(F)F [Compound 13424] | 5.43 | 5.45 | – |
| Cc1cc(F)cc2c(-c3cnc4ccc(F)cc4n3)n[nH]c12 [Compound 13718] | 6.43 | 6.96 | – |
| O=C(c1cc2cc(F)ccc2[nH]1)N(Cc1ccco1)Cc1ccco1 [Compound 9125] | 5.28 | 5.62 | – |

| Structure (SMILES) | pIC50 (androgen receptor (AR); [1]) | pIC50 (PSA; [2]) | further results |
| --- | --- | --- | --- |
| Oc1cc2ccccc2cc1-c1nc2ccccc2[nH]1 [Compound 13687] | – | – | eGFP IC50 (androgen receptor (AR); [5]): Inactive; PSA IC50 (PSA; [6]): Inactive |
| Brc1ccc2[nH]cc(-c3ccc4ccccc4n3)c2c1 [13 683] | – | – | pIC50 (androgen receptor (AR); [3]): 5.59; pIC50 (PSA; [4]): 5.72 |
| Fc1cc(Cl)cc2cc[nH]c12 [Compound 13720] | – | – | eGFP IC50 (androgen receptor (AR); [5]): Inactive; PSA IC50 (PSA; [6]): Inactive |
| FC(F)(F)c1ccc(-c2c[nH]c3ccccc23)cc1 [Compound 13743] | 6.42 | 6.41 | – |
| Cc1cccc2c(-c3ccc4scnc4c3)c[nH]c12 [13 758] | – | – | IC50 (eGFP) (androgen receptor (AR); [7]): IC50 (eGFP) = Inactive; IC50 (PSA) (PSA; media after 3 days): IC50 (PSA) = Inactive |
| Cc1cccc2c(-c3cnc4ccccc4n3)c[nH]c12 [Compound 13699] | 7.14 | – | pIC50 (PSA; PSA excreted into media, 3 days incubation, read-out: PSA IC50): 7.14 |
| O=[N+]([O-])c1cccc2nc(-c3c[nH]c4c(Cl)cccc34)ccc12 [Compound 13711] | – | – | eGFP IC50 (androgen receptor (AR); [5]): Inactive; PSA IC50 (PSA; [6]): Inactive |
| Cc1cccc2c(-c3ccc4cnccc4c3)c[nH]c12 [Compound 13765] | – | – | IC50 (eGFP) (androgen receptor (AR); [7]): IC50 (eGFP) = inactive; eGFP IC50 (androgen receptor (AR); [5]): Inactive; PSA IC50 (PSA; [6]): Inactive; IC50 (PSA) (PSA; media after 3 days): IC50 (PSA) = inactive |
| Cc1ccc2[nH]cc(C3Nc4ccccc4C3(C)C)c2c1 (stereo not shown) [Compound 13535] | 5.82 | 5.73 | – |
| Cc1cccc2c(-c3nc(Br)cs3)c[nH]c12 [Compound 13766] | 7.35 | 7.70 | pIC50 (androgen receptor (AR); [3]): 7.35; pIC50 (PSA; [4]): 7.70 |
| COc1cccc2c(-c3cc(C)c4ccccc4n3)c[nH]c12 [Compound 13554] | 6.23 | 6.17 | – |
| Cc1cccc2c(C3=Nc4ccccc4CN3)c[nH]c12 [Compound 13604] | – | – | eGFP IC50 (androgen receptor (AR); [5]): Inactive; PSA IC50 (PSA; [6]): Inactive |
| Cc1cccc2c(-c3cnc4ccccc4n3)c[nH]c12 [Compound 13585] | 6.96 | 7.41 | – |
| Cc1ccc(C)c2c(-c3ccc4ccccc4n3)c[nH]c12 [Compound 13600] | 5.90 | 6.03 | – |
| N#Cc1cc(-c2c[nH]c3cc(F)c(F)cc23)nc2ccccc12 [Compound 13664] | – | – | eGFP IC50 (androgen receptor (AR); [5]): Inactive; PSA IC50 (PSA; [6]): Inactive |
| Fc1ccc(CSc2c[nH]c3ccccc23)cc1 [Compound 13410] | 5.92 | 5.69 | – |
| O=[N+]([O-])c1cccc2c(-c3ccc(Br)cc3)c[nH]c12 [13 738] | – | – | pIC50 (androgen receptor (AR); [3]): 7.08; pIC50 (PSA; [4]): 7.21 |
| Cc1cccc2c(-c3ccc(-c4ccccc4)cc3)c[nH]c12 [Compound 13733] | 5.42 | 6.04 | – |
| c1ccc2c(-c3nn[nH]n3)c[nH]c2c1 [13 701] | – | – | IC50 (eGFP) (androgen receptor (AR); [7]): IC50 (eGFP) = Inactive; IC50 (PSA) (PSA; media after 3 days): IC50 (PSA) = Inactive |

| Structure (SMILES) | pIC50 (androgen receptor (AR); [1]) | pIC50 (PSA; [2]) | further results |
| --- | --- | --- | --- |
| Cc1cc2ccccc2nc1-c1c[nH]c2c(C)cccc12 [Compound 13596] | – | – | eGFP IC50 (androgen receptor (AR); [5]): Inactive; PSA IC50 (PSA; [6]): Inactive |
| Fc1ccc2ccc(-c3c[nH]c4c(Cl)cccc34)nc2c1 [Compound 13694] | 7.15 | 7.17 | – |
| O=[N+]([O-])c1cccc2c(-c3ccc4ccccc4c3)c[nH]c12 [13 702] | – | – | pIC50 (androgen receptor (AR); [3]): 6.70; pIC50 (PSA; [4]): 6.85 |
| CNC(=O)c1cccc2nc(-c3c[nH]c4c(C)cc(F)cc34)ccc12 [Compound 13710] | 6.64 | 6.60 | – |
| Cc1cccc2c(-c3ccc4c(Br)cccc4n3)c[nH]c12 [Compound 13678] | – | – | eGFP IC50 (androgen receptor (AR); [5]): Inactive; PSA IC50 (PSA; [6]): Inactive |
| Fc1cc2c(-c3ccc4c(Cl)cccc4n3)c[nH]c2c(F)c1F [Compound 13750] | – | – | eGFP IC50 (androgen receptor (AR); [5]): Inactive; PSA IC50 (PSA; [6]): Inactive |
| Cc1cc(F)cc2c(-c3ccc4cccc(F)c4n3)c[nH]c12 [Compound 13708] | 6.54 | 6.54 | – |
| Fc1cccc2nc(-c3c[nH]c4c(Cl)cccc34)ccc12 [Compound 13712] | – | – | eGFP IC50 (androgen receptor (AR); [5]): Inactive; PSA IC50 (PSA; [6]): Inactive |
| Fc1ccc(Cl)c2[nH]cc(-c3ccc4ccccc4n3)c12 [Compound 13639] | 6.26 | 6.26 | – |
| Cc1ccc2[nH]cc(-c3ccc4ccccc4n3)c2c1 [13 577] | – | – | pIC50 (androgen receptor (AR); [3]): 5.49; pIC50 (PSA; [4]): 5.76 |
| Cc1[nH]c2ccccc2c1SCc1ccccc1F [Compound 13411] | 5.62 | 5.62 | – |
| Fc1ccc(-c2c[nH]c3ccccc23)nc1 [Compound 13742] | 6.66 | 6.70 | – |
| Cc1cccc2c(-c3ccc4c(F)cccc4n3)c[nH]c12 [Compound 13623] | – | – | eGFP IC50 (androgen receptor (AR); [5]): Inactive; PSA IC50 (PSA; [6]): Inactive |
| Fc1cc2[nH]cc(-c3ccc4cccc(C(F)(F)F)c4n3)c2cc1F [Compound 13682] | 6.05 | 6.00 | – |
| COc1ccc2[nH]c(-c3c[nH]c4ccccc34)cc2c1 [Compound 13509] | 5.59 | 5.51 | – |
| Oc1cc2ccccc2nc1-c1c[nH]c2cc(F)c(F)cc12 [Compound 13629] | 5.31 | 5.75 | – |
| Cc1cccc2c(-c3cnc4ccccc4c3)c[nH]c12 [13 654] | – | – | pIC50 (androgen receptor (AR); [3]): 6.04; pIC50 (PSA; [4]): 6.80 |
| Cc1cccc2c(-c3ccc4c(O)cccc4n3)c[nH]c12 [Compound 13620] | – | – | eGFP IC50 (androgen receptor (AR); [5]): Inactive; PSA IC50 (PSA; [6]): Inactive |
| Fc1ccc2[nH]cc(-c3cc4ccccc4[nH]3)c2c1 [Compound 13500] | 5.91 | 6.39 | – |
